This test concerns B6C3F1 mice, B16 melanoma ip, median survival T/C. The test can be described thus: NCI In Vivo Anticancer Drug Screen. Data for tumor model B16 Melanoma (intraperitoneal) in B6C3F1 mice. The conditions noted are these: endpoint: median survival time, higher = longer survival. In a few lines:
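Readout: survival or tumor size in treated mice relative to vehicle controls (T/C). Model uses transplantable tumors grown in mice.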

The mark [1] stands for this setting: dose: 12.5 mg/kg/injection, schedule: Q01DX009 (ip), vehicle: saline + alcohol.
The mark [2] stands for this setting: dose: 25.0 mg/kg/injection, schedule: Q01DX009 (ip), vehicle: saline + alcohol.
Setting [3] is: dose: 6.25 mg/kg/injection, schedule: Q01DX009 (ip), vehicle: saline with Tween-80.
[4] abbreviates: dose: 25.0 mg/kg/injection, schedule: Q01DX009 (ip), vehicle: saline with Tween-80.
Where [5] appears, read: dose: 50.0 mg/kg/injection, schedule: Q01DX009 (ip), vehicle: saline with Tween-80.

Where “and” joins values, the source holds several entries; their conditions need not be identical. Equal entries are not always repeated. Toxic doses and inconclusive results are not listed.

For `C[C@@]1(CO)[C@H](O)CC[C@@]2(C)[C@H]1CC[C@H]1C[C@@H]3C[C@@]12CC[C@@]3(O)COC(=O)CN`, the T/C by setting is: (dose: 0.02 mg/kg/injection, schedule: Q01DX009 (ip), vehicle: saline + alcohol) 98 % of control; (dose: 0.37 mg/kg/injection, schedule: Q01DX009 (ip), vehicle: saline + alcohol) 94 % of control; (dose: 0.4 mg/kg/injection, schedule: Q01DX009 (ip), vehicle: saline + alcohol) 102 % of control; (dose: 0.75 mg/kg/injection, schedule: Q01DX009 (ip), vehicle: saline + alcohol) 98 % of control; (dose: 0.8 mg/kg/injection, schedule: Q01DX009 (ip), vehicle: saline + alcohol) 124 % of control; (dose: 1.5 mg/kg/injection, schedule: Q01DX009 (ip), vehicle: saline + alcohol) 101 % of control. The T/C is 101 % of control (dose: 1.6 mg/kg/injection, schedule: Q01DX009 (ip), vehicle: saline + alcohol); 108 % of control (dose: 1.7 mg/kg/injection, schedule: Q01DX005 (iv), vehicle: saline + alcohol); 111 % of control (dose: 2.1 mg/kg/injection, schedule: Q01DX001 (iv), vehicle: saline + alcohol); 120 % of control (dose: 2.1 mg/kg/injection, schedule: Q03HX008 (ip), vehicle: saline + alcohol); 97 % of control (dose: 2.8 mg/kg/injection, schedule: Q03HX024 (ip), vehicle: saline + alcohol); 102 % of control (dose: 3.0 mg/kg/injection, schedule: Q01DX009 (ip), vehicle: saline + alcohol). Besides, the T/C is 99 % of control (dose: 3.4 mg/kg/injection, schedule: Q01DX005 (iv), vehicle: saline + alcohol); 103 % of control (dose: 4.2 mg/kg/injection, schedule: Q01DX001 (iv), vehicle: saline + alcohol); 119 % of control (dose: 4.2 mg/kg/injection, schedule: Q03HX008 (ip), vehicle: saline + alcohol); 113 % of control and 105 % of control and 107 % of control (dose: 5.0 mg/kg/injection, schedule: Q03HX027 (ip), vehicle: saline + alcohol); 109 % of control (dose: 5.0 mg/kg/injection, schedule: Q03HX027 (sc), vehicle: saline + alcohol); 116 % of control (dose: 5.6 mg/kg/injection, schedule: Q03HX024 (ip), vehicle: saline + alcohol). The T/C is, setting by setting: (dose: 6.0 mg/kg/injection, schedule: Q01DX009 (ip), vehicle: saline + alcohol) 93 % of control; (dose: 6.75 mg/kg/injection, schedule: Q01DX005 (ip), vehicle: saline + alcohol) 95 % of control; (dose: 6.8 mg/kg/injection, schedule: Q01DX005 (iv), vehicle: saline + alcohol) 96 % of control; (dose: 8.4 mg/kg/injection, schedule: Q03HX008 (ip), vehicle: saline + alcohol) 114 % of control; (dose: 8.5 mg/kg/injection, schedule: Q01DX001 (iv), vehicle: saline + alcohol) 109 % of control; (dose: 10.0 mg/kg/injection, schedule: Q03HX027 (ip), vehicle: saline + alcohol) 117 % of control and 123 % of control. Also, the T/C by setting is: (dose: 10.0 mg/kg/injection, schedule: Q03HX027 (sc), vehicle: saline) 102 % of control; under setting [1], 111 % of control and 120 % of control; (dose: 13.5 mg/kg/injection, schedule: Q01DX005 (ip), vehicle: saline + alcohol) 104 % of control; (dose: 15.0 mg/kg/injection, schedule: Q01DX009 (ip), vehicle: saline + alcohol) 116 % of control; (dose: 16.8 mg/kg/injection, schedule: Q03HX008 (ip), vehicle: saline + alcohol) 114 % of control; (dose: 16.9 mg/kg/injection, schedule: Q01DX001 (ip), vehicle: saline + alcohol) 103 % of control. The T/C by setting is: (dose: 16.9 mg/kg/injection, schedule: Q01DX001 (iv), vehicle: saline + alcohol) 103 % of control; (dose: 20.0 mg/kg/injection, schedule: Q03HX027 (ip), vehicle: saline + alcohol) 162 % of control; (dose: 20.0 mg/kg/injection, schedule: Q03HX027 (sc), vehicle: saline + alcohol) 108 % of control; (dose: 20.0 mg/kg/injection, schedule: Q03HX027 (sc), vehicle: saline) 100 % of control; (dose: 22.5 mg/kg/injection, schedule: Q04DX003 (ip), vehicle: saline + alcohol) 98 % of control; under setting [2], 121 % of control and 122 % of control. Further, the T/C (dose: 27.0 mg/kg/injection, schedule: Q01DX005 (ip), vehicle: saline + alcohol) is 124 % of control; the T/C (dose: 27.0 mg/kg/injection, schedule: Q01DX005 (iv), vehicle: saline + alcohol) was 105 % of control; the T/C (dose: 30.0 mg/kg/injection, schedule: Q01DX009 (ip), vehicle: saline + alcohol) was 124 % of control; the T/C (dose: 30.0 mg/kg/injection, schedule: Q01DX009 (oral), vehicle: saline + alcohol) was 115 % of control; the T/C (dose: 33.7 mg/kg/injection, schedule: Q03HX008 (ip), vehicle: saline + alcohol) was 115 % of control; the T/C (dose: 33.8 mg/kg/injection, schedule: Q01DX001 (ip), vehicle: saline + alcohol) was 110 % of control. In addition, the T/C is, setting by setting: (dose: 33.8 mg/kg/injection, schedule: Q01DX001 (iv), vehicle: saline + alcohol) 115 % of control; (dose: 40.0 mg/kg/injection, schedule: Q03HX027 (ip), vehicle: saline + alcohol) 175 % of control and 176 % of control; (dose: 40.0 mg/kg/injection, schedule: Q03HX027 (sc), vehicle: saline + alcohol) 98 % of control; (dose: 40.0 mg/kg/injection, schedule: Q03HX027 (sc), vehicle: saline) 102 % of control; (dose: 45.0 mg/kg/injection, schedule: Q04DX003 (ip), vehicle: saline + alcohol) 92 % of control; (dose: 50.0 mg/kg/injection, schedule: Q01DX009 (ip), vehicle: saline + alcohol) 151 % of control. In addition, the T/C by setting is: (dose: 54.0 mg/kg/injection, schedule: Q01DX005 (ip), vehicle: saline + alcohol) 113 % of control; (dose: 54.0 mg/kg/injection, schedule: Q01DX005 (iv), vehicle: saline + alcohol) 115 % of control; (dose: 60.0 mg/kg/injection, schedule: Q01DX009 (oral), vehicle: saline + alcohol) 117 % of control; (dose: 67.5 mg/kg/injection, schedule: Q01DX001 (ip), vehicle: saline + alcohol) 104 % of control; (dose: 67.5 mg/kg/injection, schedule: Q01DX001 (iv), vehicle: saline + alcohol) 105 % of control; (dose: 80.0 mg/kg/injection, schedule: Q03HX027 (sc), vehicle: saline + alcohol) 121 % of control. The T/C runs as follows: (dose: 80.0 mg/kg/injection, schedule: Q03HX027 (sc), vehicle: saline) 102 % of control; (dose: 90.0 mg/kg/injection, schedule: Q04DX003 (ip), vehicle: saline + alcohol) 91 % of control; (dose: 240.0 mg/kg/injection, schedule: Q01DX009 (oral), vehicle: saline + alcohol) 114 % of control; (dose: 36.0 micrograms per hour, schedule: Q#X X216 (sc), vehicle: saline) 100 % of control; (dose: 72.0 micrograms per hour, schedule: Q#X X216 (sc), vehicle: saline) 102 % of control; (dose: 144.0 micrograms per hour, schedule: Q#X X216 (sc), vehicle: saline) 118 % of control.
For `CCCCC(=O)OCC1OC(n2cnc3c(=S)nc[nH]c32)C(OC(=O)CCCC)C1OC(=O)CCCC` (stereo not drawn), the T/C runs as follows: under setting [3], 102 % of control; (dose: 12.5 mg/kg/injection, schedule: Q01DX009 (ip), vehicle: saline with Tween-80) 105 % of control; under setting [4], 108 % of control; under setting [5], 92 % of control.
Turning to `COc1ccc2c(NCCCCCCNc3c4ccccc4nc4cc(OC)ccc34)c3ccccc3nc2c1`, the T/C runs as follows: (dose: 39.0 micrograms/kg/injection, schedule: Q01DX009 (ip), vehicle: lactic acid) 108 % of control; (dose: 78.0 micrograms/kg/injection, schedule: Q01DX009 (ip), vehicle: lactic acid) 90 % of control.
Take `NC1=NC(O)C=C1` (stereo not drawn): the T/C is 108 % of control (dose: 3.12 mg/kg/injection, schedule: Q01DX009 (ip), vehicle: saline + alcohol); 108 % of control (dose: 6.25 mg/kg/injection, schedule: Q01DX009 (ip), vehicle: saline + alcohol); 100 % of control under setting [1]; 104 % of control under setting [2].
Regarding `COc1cc([C@@H]2c3cc4c(cc3[C@H](OC3OC5COC(c6ccccc6)OC5C(O)C3O)[C@H]3COC(=O)[C@H]23)OCO4)cc(OC)c1OC` (stereo partly drawn), the T/C reads like this: under setting [3], 123 % of control; under setting [4], 154 % of control; under setting [5], 169 % of control and 177 % of control.
